The text below walks through data of BindingDB's records for doi:10.1021/acs.jmedchem.9b01509 (University of Chemistry and Technology Prague, 2020).

This experiment concerns the target Sarcoplasmic/endoplasmic reticulum calcium ATPase 1 (Oryctolagus cuniculus, UniProt P04191). Put plainly: Inhibition of rabbit SERCA1a preincubated for 10 mins followed by addition of ATP and measured after 10 mins by colorimetric method.

Sequence of Sarcoplasmic/endoplasmic reticulum calcium ATPase 1 (P04191 whole entry): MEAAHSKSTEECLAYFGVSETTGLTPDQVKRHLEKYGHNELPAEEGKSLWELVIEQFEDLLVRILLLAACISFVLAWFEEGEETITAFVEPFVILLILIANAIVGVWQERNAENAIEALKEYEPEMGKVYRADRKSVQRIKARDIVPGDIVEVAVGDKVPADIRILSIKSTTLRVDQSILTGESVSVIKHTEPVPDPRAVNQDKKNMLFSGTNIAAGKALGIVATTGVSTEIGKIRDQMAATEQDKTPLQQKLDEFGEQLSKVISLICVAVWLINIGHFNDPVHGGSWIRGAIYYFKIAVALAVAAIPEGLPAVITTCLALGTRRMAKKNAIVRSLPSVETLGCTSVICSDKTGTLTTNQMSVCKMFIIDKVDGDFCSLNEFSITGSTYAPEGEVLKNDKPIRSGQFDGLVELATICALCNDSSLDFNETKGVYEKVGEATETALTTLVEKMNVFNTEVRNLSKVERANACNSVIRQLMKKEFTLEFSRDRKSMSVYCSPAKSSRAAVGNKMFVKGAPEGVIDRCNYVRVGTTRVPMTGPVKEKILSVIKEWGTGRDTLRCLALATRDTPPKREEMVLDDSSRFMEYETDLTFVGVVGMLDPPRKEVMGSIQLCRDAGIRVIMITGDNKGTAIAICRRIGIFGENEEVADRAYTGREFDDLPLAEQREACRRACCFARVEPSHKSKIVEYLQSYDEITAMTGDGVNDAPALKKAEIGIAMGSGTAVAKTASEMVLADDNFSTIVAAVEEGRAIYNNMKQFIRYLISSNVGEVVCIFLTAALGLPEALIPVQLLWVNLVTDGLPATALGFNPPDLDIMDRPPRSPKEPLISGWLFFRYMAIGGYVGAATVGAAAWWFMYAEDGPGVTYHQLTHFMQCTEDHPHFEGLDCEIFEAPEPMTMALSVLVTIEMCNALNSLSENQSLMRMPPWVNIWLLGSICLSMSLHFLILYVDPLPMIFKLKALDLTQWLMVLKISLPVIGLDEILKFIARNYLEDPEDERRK

In the case of `CC[C@H](C)[C@H]1O[C@]2(CC[C@@H]1C)C[C@@H]1C[C@@H](C/C=C(\C)[C@@H](O[C@H]3C[C@H](OC)[C@@H](O[C@H]4C[C@H](OC)[C@@H](O)[C@H](C)O4)[C@H](C)O3)[C@@H](C)/C=C/C=C3\CO[C@@H]4[C@H](O)C(C)=C[C@@H](C(=O)O1)[C@]34O)O2` [ABAMECTIN], the IC50 is 15 µM.

As a reminder, the IC50 is the concentration that inhibits the measured activity by half.
